The supplement of paper PMC7394473

How the values were obtained:
Settings in all cases: 72 h
U2OS [1] = test: drug GRADE (percent of response due to cell death) (% (0-100)); higher = more death-driven response
Procedure: (§1)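 U2OS cells treated with full dose titrations of drug; live and dead cells counted by STACK microscopy (mKate2 nuclei, SYTOX Green) at 72 h, biological triplicates. GR and FV dose responses were fitted with 4-parameter logistic models (GR lower bound -1). GRADE (0-100) is the rescaled angle of a linear fit of FV versus GR at doses with GR >= 0, giving the percentage of the response due to cell death.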

U2OS [2] = test: FV IC50 (concentration giving fractional viability 0.5); higher = less potent killing
Procedure: as §1

U2OS [3] = test: fractional viability (live cells / total cells); higher = less cell death
Procedure: (§2)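 U2OS::Nuc-mKate2 cells seeded in 96-well plates and treated with eight- to ten-point half-log or log dilutions of drug in the presence of 50 nM SYTOX Green. Live (mKate2+) and dead (SYTOX+) cells were counted by IncuCyte STACK live-cell microscopy at 72 h; biological triplicates. GR is the normalised growth-rate inhibition value (Hafner 2016; 1 = untreated growth, <0 = population shrinking). FV is live/(live+dead) cells, not normalised.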

U2OS [4] = test: GR50 (concentration giving GR = 0.5)
Procedure: as §1

U2OS [5] = test: normalized growth rate inhibition value (GR) relative to untreated cells (GR value (dimensionless, 1 = untreated growth)); higher = less growth inhibition
Procedure: as §2

U2OS [6] = test: GRmin (fitted minimal GR value at highest effect) (GR value (dimensionless)); higher = less efficacious
Procedure: as §1

CNc1ccc2oc(C[C@H]3O[C@@]4(CC[C@H]3C)O[C@H]([C@H](C)C(=O)c3ccc[nH]3)[C@H](C)C[C@H]4C)nc2c1C(=O)O
drug GRADE (U2OS [1]): 23.9
FV IC50 (U2OS [2]): 8.33 µM
fractional viability (U2OS [3]; 0.01 µM): 0.982
fractional viability (U2OS [3]; 0.0316 µM): 0.983
fractional viability (U2OS [3]; 0.1 µM): 0.976
fractional viability (U2OS [3]; 0.316 µM): 0.97
fractional viability (U2OS [3]; 1 µM): 0.959
fractional viability (U2OS [3]; 3.16 µM): 0.848
fractional viability (U2OS [3]; 10 µM): 0.418
fractional viability (U2OS [3]; 31.6 µM): 0.0921
GR50 (U2OS [4]): 1.69 µM
normalized growth rate inhibition value (U2OS [5]; 0.01 µM): 1.02
normalized growth rate inhibition value (U2OS [5]; 0.0316 µM): 1.01
normalized growth rate inhibition value (U2OS [5]; 0.1 µM): 0.913
normalized growth rate inhibition value (U2OS [5]; 0.316 µM): 0.846
normalized growth rate inhibition value (U2OS [5]; 1 µM): 0.612
normalized growth rate inhibition value (U2OS [5]; 3.16 µM): 0.31
normalized growth rate inhibition value (U2OS [5]; 10 µM): -0.171
normalized growth rate inhibition value (U2OS [5]; 31.6 µM): -0.602

Cc1ccc(C(=O)N(CCCN)[C@@H](c2oc3cc(Cl)ccc3c(=O)c2Cc2ccccc2)C(C)C)cc1
drug GRADE (U2OS [1]): 53.2
FV IC50 (U2OS [2]): 2.85 µM
GRmin (U2OS [6]): -0.9
fractional viability (U2OS [3]; 0.00316 µM): 0.855
fractional viability (U2OS [3]; 0.01 µM): 0.758
fractional viability (U2OS [3]; 0.0316 µM): 0.808
fractional viability (U2OS [3]; 0.1 µM): 0.764
fractional viability (U2OS [3]; 0.316 µM): 0.827
fractional viability (U2OS [3]; 1 µM): 0.782
fractional viability (U2OS [3]; 3.16 µM): 0.436
fractional viability (U2OS [3]; 10 µM): 0.0037
fractional viability (U2OS [3]; 31.6 µM): 0.000513
normalized growth rate inhibition value (U2OS [5]; 0.00316 µM): 0.205
normalized growth rate inhibition value (U2OS [5]; 0.01 µM): -0.165
normalized growth rate inhibition value (U2OS [5]; 0.0316 µM): 0.0886
normalized growth rate inhibition value (U2OS [5]; 0.1 µM): -0.222
normalized growth rate inhibition value (U2OS [5]; 0.316 µM): 0.0837
normalized growth rate inhibition value (U2OS [5]; 1 µM): -0.166
normalized growth rate inhibition value (U2OS [5]; 3.16 µM): -0.182
normalized growth rate inhibition value (U2OS [5]; 10 µM): -0.945
normalized growth rate inhibition value (U2OS [5]; 31.6 µM): -0.883

CN(C)CC[C@H](CSc1ccccc1)Nc1ccc(S(=O)(=O)NC(=O)c2ccc(N3CCN(Cc4ccccc4-c4ccc(Cl)cc4)CC3)cc2)cc1[N+](=O)[O-] [ABT-737]
drug GRADE (U2OS [1]): 65.6
FV IC50 (U2OS [2]): 6.86 µM
fractional viability (U2OS [3]; 0.00100578 µM): 0.986
fractional viability (U2OS [3]; 0.00317827 µM): 0.984
fractional viability (U2OS [3]; 0.0100433 µM): 0.983
fractional viability (U2OS [3]; 0.0317369 µM): 0.982
fractional viability (U2OS [3]; 0.100289 µM): 0.954
fractional viability (U2OS [3]; 0.316912 µM): 0.913
fractional viability (U2OS [3]; 1.00144 µM): 0.82
fractional viability (U2OS [3]; 3.16456 µM): 0.684
fractional viability (U2OS [3]; 10 µM): 0.407
GR50 (U2OS [4]): 2.13 µM
normalized growth rate inhibition value (U2OS [5]; 0.00100578 µM): 0.92
normalized growth rate inhibition value (U2OS [5]; 0.00317827 µM): 1.02
normalized growth rate inhibition value (U2OS [5]; 0.0100433 µM): 1.02
normalized growth rate inhibition value (U2OS [5]; 0.0317369 µM): 0.95
normalized growth rate inhibition value (U2OS [5]; 0.100289 µM): 0.94
normalized growth rate inhibition value (U2OS [5]; 0.316912 µM): 0.817
normalized growth rate inhibition value (U2OS [5]; 1.00144 µM): 0.744
normalized growth rate inhibition value (U2OS [5]; 3.16456 µM): 0.358
normalized growth rate inhibition value (U2OS [5]; 10 µM): -0.162

NC(=O)Nc1cc(-c2cccc(F)c2)sc1C(=O)N[C@H]1CCCNC1 [AZD7762]
drug GRADE (U2OS [1]): 20
FV IC50 (U2OS [2]): 0.51 µM
GRmin (U2OS [6]): -0.614
fractional viability (U2OS [3]; 0.00100578 µM): 0.991
fractional viability (U2OS [3]; 0.00317827 µM): 0.992
fractional viability (U2OS [3]; 0.0100433 µM): 0.992
fractional viability (U2OS [3]; 0.0317369 µM): 0.988
fractional viability (U2OS [3]; 0.100289 µM): 0.894
fractional viability (U2OS [3]; 0.316912 µM): 0.548
fractional viability (U2OS [3]; 1.00144 µM): 0.398
fractional viability (U2OS [3]; 3.16456 µM): 0.0972
fractional viability (U2OS [3]; 10 µM): 0.0629
GR50 (U2OS [4]): 0.11 µM
normalized growth rate inhibition value (U2OS [5]; 0.00100578 µM): 1.04
normalized growth rate inhibition value (U2OS [5]; 0.00317827 µM): 1.04
normalized growth rate inhibition value (U2OS [5]; 0.0100433 µM): 1.19
normalized growth rate inhibition value (U2OS [5]; 0.0317369 µM): 1.12
normalized growth rate inhibition value (U2OS [5]; 0.100289 µM): 0.423
normalized growth rate inhibition value (U2OS [5]; 0.316912 µM): -0.126
normalized growth rate inhibition value (U2OS [5]; 1.00144 µM): -0.318
normalized growth rate inhibition value (U2OS [5]; 3.16456 µM): -0.622
normalized growth rate inhibition value (U2OS [5]; 10 µM): -0.718

CCN1CCN(Cc2ccc(Nc3ncc(F)c(-c4cc(F)c5nc(C)n(C(C)C)c5c4)n3)nc2)CC1 [Abemaciclib]
drug GRADE (U2OS [1]): 17.3
FV IC50 (U2OS [2]): 3.61 µM
fractional viability (U2OS [3]; 0.00100578 µM): 0.99
fractional viability (U2OS [3]; 0.00317827 µM): 0.992
fractional viability (U2OS [3]; 0.0100433 µM): 0.993
fractional viability (U2OS [3]; 0.0317369 µM): 0.992
fractional viability (U2OS [3]; 0.100289 µM): 0.986
fractional viability (U2OS [3]; 0.316912 µM): 0.986
fractional viability (U2OS [3]; 1.00144 µM): 0.82
fractional viability (U2OS [3]; 3.16456 µM): 0.615
fractional viability (U2OS [3]; 10 µM): 0.0044
GR50 (U2OS [4]): 0.299 µM
normalized growth rate inhibition value (U2OS [5]; 0.00100578 µM): 1.03
normalized growth rate inhibition value (U2OS [5]; 0.00317827 µM): 0.796
normalized growth rate inhibition value (U2OS [5]; 0.0100433 µM): 0.854
normalized growth rate inhibition value (U2OS [5]; 0.0317369 µM): 0.834
normalized growth rate inhibition value (U2OS [5]; 0.100289 µM): 0.613
normalized growth rate inhibition value (U2OS [5]; 0.316912 µM): 0.583
normalized growth rate inhibition value (U2OS [5]; 1.00144 µM): -0.0282
normalized growth rate inhibition value (U2OS [5]; 3.16456 µM): -0.2
normalized growth rate inhibition value (U2OS [5]; 10 µM): -0.928

CC[C@@H]1C(=O)N(C)c2cnc(Nc3ccc(C(=O)NC4CCN(C)CC4)cc3OC)nc2N1C1CCCC1 [BI2536]
drug GRADE (U2OS [1]): 20.9
FV IC50 (U2OS [2]): 0.0275 µM
fractional viability (U2OS [3]; 0.00316 µM): 0.517
fractional viability (U2OS [3]; 0.01 µM): 0.45
fractional viability (U2OS [3]; 0.0316 µM): 0.485
fractional viability (U2OS [3]; 0.1 µM): 0.413
fractional viability (U2OS [3]; 0.316 µM): 0.388
fractional viability (U2OS [3]; 1 µM): 0.323
fractional viability (U2OS [3]; 3.16 µM): 0.168
fractional viability (U2OS [3]; 10 µM): 0.0141
fractional viability (U2OS [3]; 31.6 µM): 0.00423
normalized growth rate inhibition value (U2OS [5]; 0.00316 µM): 0.0188
normalized growth rate inhibition value (U2OS [5]; 0.01 µM): -0.371
normalized growth rate inhibition value (U2OS [5]; 0.0316 µM): -0.116
normalized growth rate inhibition value (U2OS [5]; 0.1 µM): -0.354
normalized growth rate inhibition value (U2OS [5]; 0.316 µM): -0.184
normalized growth rate inhibition value (U2OS [5]; 1 µM): -0.415
normalized growth rate inhibition value (U2OS [5]; 3.16 µM): -0.378
normalized growth rate inhibition value (U2OS [5]; 10 µM): -0.876
normalized growth rate inhibition value (U2OS [5]; 31.6 µM): -0.822

O=C(NCCCNc1nc(Nc2cccc(NC(=O)N3CCCC3)c2)ncc1I)c1cccs1 [BX795]
drug GRADE (U2OS [1]): 34.3
FV IC50 (U2OS [2]): 11.6 µM
GRmin (U2OS [6]): -0.438
fractional viability (U2OS [3]; 0.01 µM): 0.982
fractional viability (U2OS [3]; 0.0316 µM): 0.975
fractional viability (U2OS [3]; 0.1 µM): 0.974
fractional viability (U2OS [3]; 0.316 µM): 0.971
fractional viability (U2OS [3]; 1 µM): 0.94
fractional viability (U2OS [3]; 3.16 µM): 0.716
fractional viability (U2OS [3]; 10 µM): 0.661
fractional viability (U2OS [3]; 31.6 µM): 0.102
GR50 (U2OS [4]): 1.46 µM
normalized growth rate inhibition value (U2OS [5]; 0.01 µM): 0.987
normalized growth rate inhibition value (U2OS [5]; 0.0316 µM): 1.11
normalized growth rate inhibition value (U2OS [5]; 0.1 µM): 0.954
normalized growth rate inhibition value (U2OS [5]; 0.316 µM): 1.01
normalized growth rate inhibition value (U2OS [5]; 1 µM): 0.723
normalized growth rate inhibition value (U2OS [5]; 3.16 µM): -0.0493
normalized growth rate inhibition value (U2OS [5]; 10 µM): -0.146
normalized growth rate inhibition value (U2OS [5]; 31.6 µM): -0.574

O=C(/C=C/c1cccc(S(=O)(=O)Nc2ccccc2)c1)NO [Belinostat]
drug GRADE (U2OS [1]): 63.3
FV IC50 (U2OS [2]): 0.93 µM
GRmin (U2OS [6]): -0.733
fractional viability (U2OS [3]; 0.01 µM): 0.969
fractional viability (U2OS [3]; 0.0316 µM): 0.972
fractional viability (U2OS [3]; 0.1 µM): 0.947
fractional viability (U2OS [3]; 0.316 µM): 0.878
fractional viability (U2OS [3]; 1 µM): 0.466
fractional viability (U2OS [3]; 3.16 µM): 0.096
fractional viability (U2OS [3]; 10 µM): 0.0497
fractional viability (U2OS [3]; 31.6 µM): 0.0293
GR50 (U2OS [4]): 0.332 µM
normalized growth rate inhibition value (U2OS [5]; 0.01 µM): 0.939
normalized growth rate inhibition value (U2OS [5]; 0.0316 µM): 0.975
normalized growth rate inhibition value (U2OS [5]; 0.1 µM): 0.836
normalized growth rate inhibition value (U2OS [5]; 0.316 µM): 0.498
normalized growth rate inhibition value (U2OS [5]; 1 µM): -0.0168
normalized growth rate inhibition value (U2OS [5]; 3.16 µM): -0.527
normalized growth rate inhibition value (U2OS [5]; 10 µM): -0.646
normalized growth rate inhibition value (U2OS [5]; 31.6 µM): -0.72
